Measurements taken from ChEMBL document CHEMBL1137407, “Identification and optimization of anthranilic sulfonamides as novel, selective cholecystokinin-2 receptor antagonists” (J Med Chem, 2006).

Tests used:
[1] = Stability in rat liver microsome after 30 mins; assay type: ADME; details: liver microsomes, read-out: Stability
[2] = Oral bioavailability in Sprague-Dawley rat at 2 umol/kg, po; assay type: ADME, organism-based; details: in vivo
[3] = Clearance in Sprague-Dawley rat at 2 umol/kg, iv; assay type: ADME, organism-based; details: in vivo
[4] = Stability in human liver microsome after 30 mins; assay type: ADME; details: liver microsomes, read-out: Stability
[5] = target: T1, Gastrin/cholecystokinin type B receptor (Homo sapiens, UniProt P32239); details: read-out: Log Ki (converted)
T1 sequence (P32239 whole entry): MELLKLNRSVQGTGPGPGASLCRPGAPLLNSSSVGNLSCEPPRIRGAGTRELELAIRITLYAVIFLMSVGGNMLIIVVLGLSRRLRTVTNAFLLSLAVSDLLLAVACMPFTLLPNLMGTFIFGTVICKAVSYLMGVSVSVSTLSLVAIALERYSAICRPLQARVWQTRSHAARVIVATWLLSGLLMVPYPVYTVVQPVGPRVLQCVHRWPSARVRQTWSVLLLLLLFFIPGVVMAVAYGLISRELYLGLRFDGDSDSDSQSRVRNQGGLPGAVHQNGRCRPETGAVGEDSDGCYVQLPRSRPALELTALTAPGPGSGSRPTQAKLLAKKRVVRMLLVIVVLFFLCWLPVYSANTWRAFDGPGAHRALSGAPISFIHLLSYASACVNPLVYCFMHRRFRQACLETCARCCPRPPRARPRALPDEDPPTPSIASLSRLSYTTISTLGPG
Description: Displacement of [125I]CCK-8S from human CCK2R

[6] = Half life in Sprague-Dawley rat at 2 umol/kg, iv; assay type: ADME, organism-based; details: in vivo
[7] = target: T2, Cholecystokinin receptor type A (Homo sapiens, UniProt P32238)
T2 sequence (P32238 whole entry): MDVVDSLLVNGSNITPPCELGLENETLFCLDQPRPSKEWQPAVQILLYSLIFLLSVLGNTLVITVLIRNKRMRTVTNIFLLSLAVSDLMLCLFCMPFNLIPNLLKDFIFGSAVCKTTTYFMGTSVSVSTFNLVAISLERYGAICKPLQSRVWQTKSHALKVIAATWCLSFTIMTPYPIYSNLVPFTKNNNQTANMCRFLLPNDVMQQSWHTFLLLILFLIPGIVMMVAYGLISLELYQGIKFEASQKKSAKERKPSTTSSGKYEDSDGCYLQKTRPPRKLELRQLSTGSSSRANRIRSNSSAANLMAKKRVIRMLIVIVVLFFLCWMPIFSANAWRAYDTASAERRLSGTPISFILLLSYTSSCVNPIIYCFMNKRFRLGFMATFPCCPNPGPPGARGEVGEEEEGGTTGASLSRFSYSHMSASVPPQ
Description: Displacement of [125I]CCK-8S from human CCK1R

Rattus norvegicus [8] = experiment: Inhibition of pentagastrin-stimulated gastric acid secretion in po dosed conscious gastric fistula Sprague-Dawley rat; assay type: functional; details: Stomach
[9] = Oral bioavailability in Beagle dog at 20 umol/kg, po; assay type: ADME, organism-based, Canis lupus familiaris; details: in vivo
[10] = Clearance in Beagle dog at 2 umol/kg, iv; assay type: ADME, organism-based, Canis lupus familiaris; details: in vivo
[11] = Half life in Beagle dog at 2 umol/kg, iv; assay type: ADME, organism-based, Canis lupus familiaris; details: in vivo
[12] = Binding to alpha-glycoprotein; assay type: ADME; details: human, read-out: PPB (converted)
Cavia porcellus = species on record: Cavia porcellus; experiment: Antagonizing effect on penta gastrin-stimulated guinea pig gastric smooth muscle contraction by Schild analysis; assay type: functional, Muscle tissue
[13] = Stability in dog liver S9 fraction after 30 mins; assay type: ADME, Canis lupus familiaris; details: read-out: Stability
[14] = Stability in human liver S9 fraction after 15 mins; assay type: ADME; details: read-out: Stability
[15] = Stability in rat liver S9 fraction after 15 mins; assay type: ADME; details: read-out: Stability
[16] = Dissociation constant, pKa of the compound; assay type: physicochemical
[17] = target: T3, Cholecystokinin receptor type A (Cavia porcellus) (UniProt Q63931); experiment: Antagonizing effect on CCK-8S-stimulated guinea pig gall bladder smooth muscle contraction by Schild analysis; assay type: functional, tissue-based; details: Muscle tissue
T3 sequence (whole entry): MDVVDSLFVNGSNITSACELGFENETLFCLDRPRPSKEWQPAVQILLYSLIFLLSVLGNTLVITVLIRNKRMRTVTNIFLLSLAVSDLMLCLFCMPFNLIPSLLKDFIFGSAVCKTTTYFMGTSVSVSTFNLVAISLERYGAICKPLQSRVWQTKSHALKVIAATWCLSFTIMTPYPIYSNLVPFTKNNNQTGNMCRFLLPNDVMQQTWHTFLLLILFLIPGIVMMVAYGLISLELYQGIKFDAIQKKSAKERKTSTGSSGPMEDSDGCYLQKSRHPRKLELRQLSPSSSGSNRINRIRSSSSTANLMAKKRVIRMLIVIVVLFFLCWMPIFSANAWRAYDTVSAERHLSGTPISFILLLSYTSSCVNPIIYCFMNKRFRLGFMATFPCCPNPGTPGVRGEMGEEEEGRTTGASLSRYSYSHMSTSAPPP

[18] = Stability in dog liver S9 fraction after 15 mins; assay type: ADME, Canis lupus familiaris; details: read-out: Stability
[19] = Stability in human liver microsome after 15 mins; assay type: ADME; details: liver microsomes, read-out: Stability
[20] = Stability in rat liver S9 fraction after 30 mins; assay type: ADME; details: read-out: Stability
Caco-2 [21] = experiment: Apparent permeability from basolateral to apical side of Caco-2 cells; assay type: ADME, cell-based; details: human
Caco-2 [22] = experiment: Apparent permeability from apical to basolateral side of Caco-2 cells; assay type: ADME, cell-based; details: human
[23] = Partition coefficient, log D at pH 7.4; assay type: physicochemical; details: octanol/water
[24] = Stability in human liver S9 fraction after 30 mins; assay type: ADME; details: read-out: Stability
Rattus norvegicus [25] = species on record: Rattus norvegicus; experiment: Plasma concentration in rat; assay type: ADME, organism-based; details: in vivo
Rattus norvegicus [26] = experiment: Inhibition of pentagastrin-stimulated gastric acid secretion in iv dosed anesthetized rat measured as increase in pH; assay type: functional, Stomach

SMILES | remaining at 0.5 h [1] [%] | bioavailability [2] [%] | clearance [3] [mL/min/kg] | remaining at 0.5 h [4] [%] | Ki [5] [µM] | half-life [6] [min] | Ki ([7]; read-out: Ki) [µM] | bioavailability [9] [%] | clearance [10] [mL/min/kg] | half-life [11] [min] | pKa [16] | Kb [17] [µM] | pKb [17] | pKb (Cavia porcellus) | other results
O=C(c1ccc(Br)cc1NS(=O)(=O)c1cccc2nccnc12)N1CCCCC1 | 8 | 50 | 13.8 | 21 | 0.0631 | 20.4 | > 10 |  |  |  |  |  |  |  | 
O=C(c1ccc(I)cc1NS(=O)(=O)c1cccc2nccnc12)N1CCOCC1 | 46 | 55 | 6 | 60 |  | 37.2 | > 10 | 51 | 1.62 | 90 |  |  |  |  | ED50 (Rattus norvegicus [8]): 0.57 mg/kg
O=C(c1ccc(Cl)cc1NS(=O)(=O)c1cccc2nsnc12)N1CCCCC1 |  | 42 | 20.8 | 3.9 | 0.0398 | 9.6 | > 10 |  |  |  | 5.47 | > 10 | < 5 | 8.49 | fraction unbound [12]: 0.23; remaining at 0.5 h [13]: 59%; remaining at 0.25 h [14]: 69%; remaining at 0.25 h [15]: 78%; remaining at 0.25 h [18]: 78%; remaining at 0.25 h [19]: 19%; remaining at 0.5 h [20]: 62%; Papp (Caco-2 [21]): 1.8 ×10⁻⁶ cm/s; Papp (Caco-2 [22]): 22.7 ×10⁻⁶ cm/s; logD [23]: 2.1; remaining at 0.5 h [24]: 51%

Continued, in another order:

remaining at 0.5 h [1] [%] | bioavailability [2] [%] | clearance [3] [mL/min/kg] | remaining at 0.5 h [4] [%] | Ki [5] [µM] | half-life [6] [min] | Ki ([7]; read-out: Ki) [µM] | bioavailability [9] [%] | clearance [10] [mL/min/kg] | half-life [11] [min] | pKa [16] | Kb [17] [µM] | pKb [17] | SMILES | pKb (Cavia porcellus) | other results
9 |  | 7 | 16 | 0.398 | 21 |  |  |  |  |  |  |  | O=C(c1cc(Cl)ccc1NS(=O)(=O)c1cccc2nsnc12)N1CCCCC1 |  | Ki ([7]; read-out: Log Ki (converted)): > 10 µM
8 | 68 | 11.7 | 15 |  | 15.6 | > 10 | 33 | 11.7 | 25.2 |  | > 10 | < 5 | O=C(c1ccc(Br)cc1NS(=O)(=O)c1cccc2nsnc12)N1CCCCC1 | 8.8 | concentration (Rattus norvegicus [25]): 1300 nM; ED50 (Rattus norvegicus [26]): 0.6 mg/kg/h
 |  |  |  | 1.58 |  | > 10 |  |  |  | 6.18 |  |  | O=C(c1ccc(Cl)cc1NS(=O)(=O)c1cccc2nonc12)N1CCCCC1 |  | 
